“Also recorded” adds a separate entry of the source.
Test system: HT29 colon cancer cells
Experiment: Sulforhodamine B (SRB) cell growth assay in HT29 colon cancer cells
Type: cell-based
Description: HT-29, a cell line derived from colorectal adenocarcinoma (ATCC, HTB 38), grows in McCoy's 5A medium (Biowhittaker, Inc. Walkersville, Md.). NCM460, a cell line derived from a normal human colon (InCell Corp. San Antonio, Tex.), grows in M3 Base media (InCell Corp. San Antonio, Tex.).
Both cell lines are kept at 37° C. and 5% CO2 atmosphere. Both media are supplemented with 10% fetal bovine serum (FBS, Biowhittaker, Inc. Walkersville, Md.).
Cells are fixed in situ by the gentle addition of 50 μl of cold 50% (w/v) TCA (final concentration, 10% TCA) and incubated for 60 minutes at 4° C. The supernatant is discarded, and the plates are washed five times with tap water and air dried. Sulforhodamine B (SRB) solution (100 μl) at 0.4% (w/v) in 1% acetic acid is added to each well, and plates are incubated for 10 minutes at room temperature. After staining, unbound dye is removed by washing five times with 1% acetic acid and the plates are air dried. Bound stain is subsequently solubilized with 100 μl 10 mM trizma base for 5 minutes, and the absorbance at wavelength of 490 nm was spectrophotometrically measured using a microplate reader Elx800 (Bio-Tek instruments, Inc.).
Cells were seeded in 96-well cluster tissue culture plates (Costar), containing 100 μl complete growth medium per well at densities of 5,000 cells per well. Incubated at 37° C. in a humidified tissue culture incubator. After 24 Hour, 100 μl complete medium containing 5 half-log dilutions of the 5FU from 2*10^−4 to 2*10^−6 M was added into each well (final concentrations are from 10^−4 to 10^−6 M). Six replicates were used for each concentration. Media containing 0.125% DMSO was used as control. After 48 hours of incubation with 5FU in medium, cell proliferation was assessed using the SRB assay.
Percentage growth (Growth%) is calculated as: [(Ti−Tz)/(C−Tz)]×100 [absorbance measurements at time zero (Tz), control growth (C), and test growth in the presence of drug at the different concentration levels (Ti)].
Similar to the method used in testing GI50 of 5FU: HT29 was plated at 5000 cells per well. […] After 48 hour treatment, cell growth was assessed using SRB assay.
The protocol was the same as described above, except cells were exposed to 5FU at concentration ranging from 10^−4 to 10^−6 M with chokeberry ARE at concentration of 1.56, 5, 15.6, 50 μg monomeric anthocyanin/ml growth media.
The protocol was the similar to Experiment 1: Cells were exposed to half-log diluted SAC at concentration ranging from 3.2 to 1000 μM for 48 hour. Media containing 0.5% filtered water was used as control.
This experiment was to determine whether the antioxidant, SAC would enhance the effect of 5FU in HT29 cells. The protocol was the same as Experiment 3, except cells were exposed to 5FU at concentration ranging from 10^−4 to 10^−6 M with SAC at concentration of 10, 100, 1000 μM.

[1] = SAC 3.2 μM, 48 hour, experiment 1
[2] = SAC 3.2 μM, 48 hour, experiment 2
[3] = SAC 10 μM, 48 hour, experiment 1
[4] = SAC 10 μM, 48 hour, experiment 2
[5] = SAC 32 μM, 48 hour, experiment 1
[6] = SAC 32 μM, 48 hour, experiment 2
[7] = SAC 100 μM, 48 hour, experiment 1
[8] = SAC 100 μM, 48 hour, experiment 2
[9] = SAC 320 μM, 48 hour, experiment 1
[10] = SAC 320 μM, 48 hour, experiment 2
[11] = SAC 1000 μM, 48 hour, experiment 1
[12] = SAC 1000 μM, 48 hour, experiment 2
[13] = Table 6 (1): SAC 1000 uM, 5FU 0
[14] = Table 6 (2): SAC 1000 uM, 5FU 0

## C=CCSC[C@H](N)C(=O)O [SAC, S-Allyl-cysteine]
5FU 10^−4 to 10^−6 M with SAC 10, 100, 1000 μM
  enhancement of 5FU toxicity by SAC: No significant enhancement; also recorded: did not inhibit HT29 cell growth or enhance 5 FU toxicity
[1]
  Growth %: 101.17%
  OD: 0.66
[2]
  Growth %: 102.24%
  OD: 0.682
[3]
  Growth %: 98.37%
  OD: 0.648
[4]
  Growth %: 94.17%
  OD: 0.646
[5]
  Growth %: 92.77%
  OD: 0.624
[6]
  Growth %: 98.43%
  OD: 0.665
[7]
  Growth %: 92.77%
  OD: 0.624
[8]
  Growth %: 98.21%
  OD: 0.664
[9]
  Growth %: 81.59%
  OD: 0.576
[10]
  Growth %: 101.35%
  OD: 0.678
[11]
  Growth %: 86.95%
  OD: 0.599
[12]
  Growth %: 98.65%
  OD: 0.666
SAC 3.2 to 1000 μM, 48 hour
  inhibition of HT29 cancer cells by SAC: did not show significant inhibition; also recorded: did not inhibit HT29 cell growth
Table 6 (1): SAC 10 uM, 5FU 0
  Growth %: 104.65%
  OD: 0.341
Table 6 (1): SAC 100 uM, 5FU 0
  Growth %: 104.19%
  OD: 0.34
[13]
  Growth %: 95.35%
  OD: 0.321
Table 6 (2): SAC 10 uM, 5FU 0
  Growth %: 92.41%
  OD: 0.335
Table 6 (2): SAC 100 uM, 5FU 0
  Growth %: 91.56%
  OD: 0.333
[14]
  Growth %: 74.26%
  OD: 0.292
